Measured values taken from patent publication US20240336617A1, “Substituted Bimane Compounds and Methods of Use Thereof” (THE TRUSTEES OF THE UNIVERSITY OF PENNSYLVANIA, priority 2023, published 2024).

Legend:
[1] = target: T1, αS fibrils in HEK cell lysate (Homo sapiens, UniProt P37840); assay: Selectivity of probes binding with αS fibrils in HEK cell lysate; settings: 10 mg/mL total protein; probe 1 μM
T1 construct: intein-His6 (C, cleaved yes); made in house; host or cells: Escherichia coli BL21
Description: HEK 293T cells were grown on 150 mm dishes in sterile-filtered Dulbecco's modified Eagle's medium (Gibco, Thermo Fisher) supplemented with 10% fetal bovine serum (FBS), 1% penicillin/streptomycin (Mediatech, 10 mg/ml each). Cells were then washed with PBS and harvested in 5 mL PBS by scraping. Cells were pelleted by centrifugation at 1000 rpm for 5 min, and the supernatant was removed. The resulting cell pellet was re-suspended in 300-500 μL PBS buffer with 0.1% Triton X-100 (Bio-Rad) and 1×HALT protease inhibitor cocktail without EDTA (Thermo Fisher), then lysed by sonication for two 30 s cycles (cycle 1: 2 s on 2 s off, amp 50; cycle 2: 2 s on 2 s off, amp 55) using a QSonica Q700 sonicator fitted with a microtip. […]
Probes in PBS buffer (1 μM, the stock solution prepared as 10 mM in DMSO) were incubated with different αS fibril concentrations (0, 5, 10, 25 and 50 μM) in the presence of 10 mg/mL HEK cell lysate in Greiner 96 well flat black ½ area plates at 37° C. with shaking at 500 rpm for 15 min in an IKA MS3 control orbital shaker. After 15 min incubation, fluorescence intensity measurements were obtained with a Tecan Spark plate reader (Mannedorf, Switzerland) by excitation with λex/λem=424/570 nm for 7k, λex/λem=463/580 nm for 7l, λex/λem=484/620 nm for 7m, using the following parameters: excitation and emission bandwidth 5 nm, delay time 0 μs, integration time 40 μs. […]

[2] = target: T2, αS monomer (Homo sapiens, UniProt P37840); assay: Fluorescence with αS monomer (with and without TMAO); type: binding; settings: for fluorescence turn on with αS monomer: varied probe or protein concentration; for λmax (λem): 10 μM probe, αS monomer 50 μM, excitation 418 nm
T2 construct: intein-His6 (C, cleaved yes); made in house; host or cells: Escherichia coli BL21
Description: A 1 mM stock solution of 5k in DMSO and a 6.5 M stock solution of trimethylamine N-oxide (TMAO) in Tris buffer at pH 7.4 were prepared. From these stocks, the fluorescence measurements of probe 5k (10 μM) were carried out with and without αS monomer (50 μM) at different concentrations of TMAO (2 M, 4 M and 6 M) diluted with the Tris buffer. The solutions were mixed and then the spectra were measured using a Photon Technology International (PTI) QuantaMaste 40 fluorescence spectrometer with excitation at 418 nm.

[3] = target: T3, amplified αS fibrils (AFs) from PDD patient brain extracts (Homo sapiens, UniProt P37840); assay: Fluorescence measurements with PDD patient cases (lysate, AFs, PFFs); type: binding; settings: lysate or AFs and probe 1 μM
T3 construct: made in house; host or cells: recombinant αS monomer, seeded with sarkosyl-insoluble extract of human frontal cortex (AD or PDD)
Description: All procedures were performed in accordance with local institutional review board guidelines. Written informed consent for autopsy and analysis of tissue sample data was obtained either from patients themselves or their next of kin. Frozen postmortem human frontal cortex brain tissues from three patients diagnosed with Alzheimer's disease (AD) and three patients diagnosed with Parkinson's disease with dementia (PDD) were selected for sequential extraction of αS aggregates based on a high burden of αS pathology determined by immunohistochemical staining. In brief, 5-10 g of frontal cortical gray matter were homogenized in five volumes (W/V) of high-salt (HS) buffer (50 mM Tris-HCl pH 7.4, 750 mM NaCl, 10 mM NaF, 5 mM EDTA) with protease and protein phosphatase inhibitors, incubated on ice for 20 min and centrifuged at 100,000×g for 30 min. The pellets were then re-extracted with HS buffer, followed by sequential extractions with five volumes of 1% Triton X-100-containing HS buffer and 1% Triton X-100-containing HS buffer with 30% sucrose. The pellets were then re-suspended and homogenized in 1% sarkosyl-containing HS buffer, rotated at room temperature for 2 h or at 4° C. overnight and centrifuged at 100,000×g for 30 min. […] These final sarkosyl-insoluble fractions are referred to as “brain extracts.: The amount of αS in the brain extracts was determined by sandwich ELISA using Syn9027, a mono-clonal antibody (Mab) to αS, and the protein concentrations were examined by bicinchoninic acid (BCA) assay. […]
Brain-derived αS aggregates in extract samples from three AD and three PDD cases (FIG. 38A) were used as seeds for templated aggregation of recombinant αS monomer. […] After seven days of incubation, amplification progress was determined by removing an aliquot and diluting tenfold in DPBS to a final αS concentration of 3.5 μM. […] Equal volumes of supernatant and pellet fractions were analyzed on SDS-PAGE gels and Western blot, with amplified aggregates migrating to the pellet fraction (FIG. 38B). […]

| Structure (SMILES) | detection of PFFs in cytosolic HEK cell lysate [1] | fluorescence turn on with αS monomer [2] | fluorescence detection of PDD amplified fibrils (AFs) [3] | λmax (λem) ([2]; 2 M TMAO) [nm] | λmax (λem) ([2]; 4 M TMAO) [nm] | λmax (λem) ([2]; 6 M TMAO) [nm] |
| --- | --- | --- | --- | --- | --- | --- |
| Cc1c(C)n2c(/C=C/c3ccc(N4CCOCC4)cc3)c(C)c(=O)n2c1=O [Compound 7k, (E)-2,3,6-trimethyl-5-(4-morpholinostyryl)-1H,7H-pyrazolo[1,2-a]pyrazole-1,7-dione] | higher fluorescence turn on | no significant fluorescence turn on signal | – | – | – | – |
| Cc1c(C)n2c(/C=C/c3ccc(N(C)C)cc3)c(C)c(=O)n2c1=O [Compound 7l, (E)-3-(4-(dimethylamino)styryl)-2,5,6-trimethyl-1H,7H-pyrazolo[1,2-a]pyrazole-1,7-dione] | higher fluorescence turn on | occurs only with αS fibrils, not monomers | higher sensitivity to PDD derived AFs | 567 | 566 | 560 |
| Cc1c(C)n2c(/C=C/C=C/c3ccc(N(C)C)cc3)c(C)c(=O)n2c1=O [Compound 7m, 3-((1E,3E)-4-(4-(dimethylamino)phenyl)buta-1,3-dien-1-yl)-2,5,6-trimethyl-1H,7H-pyrazolo[1,2-a]pyrazole-1,7-dione] | – | – | selective increase in fluorescence for PDD AFs compared to AD AFs | – | – | – |
